The record followed here is USRE47302E1 (ONYX THERAPEUTICS INC., priority 2013, dated 2019).

≈ marks a conversion by molar mass, not a printed value.

This data set can be described thus: Solubility pH 7. As to conditions: pH 7, aqueous buffer.
As a reminder, the solubility is the concentration that dissolves in the medium under given conditions. Lower therefore signals a poorly soluble substance. `COc1ccc(C[C@H](NC(=O)[C@H](C)NC(=O)CN2CCNC(=O)C2)C(=O)N[C@@H](CC2=CCCC2)C(=O)[C@@]2(C)CO2)cc1` [Compound C-1120, (S)-N-((S)-3-(cyclopent-1-en-1-yl)-1-((R)-2-methyloxiran-2-yl)-1-oxopropan-2-yl)-3-(4-methoxyphenyl)-2-((S)-2-(2-(3-oxopiperazin-1-yl)acetamido)propanamido)propanamide]: the concentration in solution (solubility) came to 8000 µg/mL (≈ 13.7 mM).
On to `COc1ccc(C[C@H](NC(=O)[C@H](C)NC(=O)CN2CCC(C)(O)CC2)C(=O)N[C@@H](CC2=CCCC2)C(=O)[C@@]2(C)CO2)cc1` [Compound C-1121, (S)-N-((S)-3-(cyclopent-1-en-1-yl)-1-((R)-2-methyloxiran-2-yl)-1-oxopropan-2-yl)-2-((S)-2-(2-(4-hydroxy-4-methylpiperidin-1-yl)acetamido)propanamido)-3-(4-methoxyphenyl)propanamide], for which the concentration in solution (solubility) came to 287 µg/mL (≈ 0.479 mM).
For `COc1ccc(C[C@H](NC(=O)[C@H](C)NC(=O)CN2CCOCC2)C(=O)N[C@@H](CC2=CC(C)CC2)C(=O)[C@@]2(C)CO2)cc1` (stereo partly drawn) [Compound C-1122, (2S)-3-(4-methoxyphenyl)-N-((2S)-3-(3-methylcyclopent-1-en-1-yl)-1-((R)-2-methyloxiran-2-yl)-1-oxopropan-2-yl)-2-((S)-2-(2-morpholinoacetamido)propanamido)propanamide] the value was 1830 µg/mL (≈ 3.12 mM).
To `C[C@H](NC(=O)CN1CCOCC1)C(=O)N[C@@H](Cc1ccc2[nH]ccc2c1)C(=O)N[C@@H](CC1CCCC1)C(=O)[C@@]1(C)CO1` [Compound C-1123, (S)-N-((S)-3-cyclopentyl-1-((R)-2-methyloxiran-2-yl)-1-oxopropan-2-yl)-3-(1H-indol-5-yl)-2-((S)-2-(2-morpholinoacetamido)propanamido)propanamide] belongs 1470 µg/mL (≈ 2.52 mM); to `C[C@H](NC(=O)CN1CCOCC1)C(=O)N[C@@H](Cc1ccc2cc[nH]c2c1)C(=O)N[C@@H](CC1CCCC1)C(=O)[C@@]1(C)CO1` [Compound C-1124, (S)-N-((S)-3-cyclopentyl-1-((R)-2-methyloxiran-2-yl)-1-oxopropan-2-yl)-3-(1H-indol-6-yl)-2-((S)-2-(2-morpholinoacetamido)propanamido)propanamide], 56.5 µg/mL (≈ 0.0971 mM); to `C[C@H](NC(=O)CN1CCOCC1)C(=O)N[C@@H](Cc1ccc(S(C)(=O)=O)cc1)C(=O)N[C@@H](CC1=CCCCC1)C(=O)[C@@]1(C)CO1` [Compound C-1126, (S)-N-((S)-3-(cyclohex-1-en-1-yl)-1-((R)-2-methyloxiran-2-yl)-1-oxopropan-2-yl)-3-(4-(methylsulfonyl)phenyl)-2-((S)-2-(2-morpholinoacetamido)propanamido)propanamide], 7280 µg/mL (≈ 11.5 mM).
To `C[C@H](NC(=O)CN1CCOCC1)C(=O)N[C@@H](CCc1ccccc1)C(=O)N[C@@H](CC1=CCCC1)C(=O)[C@@]1(C)CO1` [Compound C-1128, (S)-N-((S)-3-(Cyclopent-1-en-1-yl)-1-((R)-2-methyloxiran-2-yl)-1-oxopropan-2-yl)-2-((S)-2-(2-morpholinoacetamido)propanamido)-4-phenylbutanamide] belongs 1370 µg/mL (≈ 2.47 mM).
In the case of `Cc1ccc(C[C@H](NC(=O)[C@H](C)NC(=O)CN2CCOCC2)C(=O)N[C@@H](CC2=CCCCC2)C(=O)[C@@]2(C)CO2)cc1O` [Compound C-1130, (S)-N-((S)-3-(cyclohex-1-en-1-yl)-1-((R)-2-methyloxiran-2-yl)-1-oxopropan-2-yl)-3-(3-hydroxy-4-methylphenyl)-2-((S)-2-(2-morpholinoacetamido)propanamido)propanamide], the concentration in solution (solubility) came to 1140 µg/mL (≈ 1.95 mM).
To `Cc1cc(C[C@H](NC(=O)[C@H](C)NC(=O)CN2CCOCC2)C(=O)N[C@@H](CC2=CCCC2)C(=O)[C@@]2(C)CO2)ccc1O` [Compound C-1131, (S)-N-((S)-3-(cyclopent-1-en-1-yl)-1-((R)-2-methyloxiran-2-yl)-1-oxopropan-2-yl)-3-(4-hydroxy-3-methylphenyl)-2-((S)-2-(2-morpholinoacetamido)propanamido)propanamide] belongs 1700 µg/mL (≈ 2.98 mM); to `COc1ccc(C[C@H](NC(=O)[C@@H](NC(=O)CN2CCOCC2)C(F)(F)F)C(=O)N[C@@H](CC2=CCCC2)C(=O)[C@@]2(C)CO2)cc1` [Compound C-1132, (R)-N-((S)-1-(((S)-3-(cyclopent-1-en-1-yl)-1-((R)-2-methyloxiran-2-yl)-1-oxopropan-2-yl)amino)-3-(4-methoxyphenyl)-1-oxopropan-2-yl)-3,3,3-trifluoro-2-(2-morpholinoacetamido)propanamide], 159 µg/mL (≈ 0.254 mM).
For `C[C@H](NC(=O)CN1CCOCC1)C(=O)N[C@@H](Cc1ccn(C)c(=O)c1)C(=O)N[C@@H](CC1=CCCC1)C(=O)[C@@]1(C)CO1` [Compound C-1137, (S)-N-((S)-3-(cyclopent-1-en-1-yl)-1-((R)-2-methyloxiran-2-yl)-1-oxopropan-2-yl)-3-(1-methyl-2-oxo-1,2-dihydropyridin-4-yl)-2-((S)-2-(2-morpholinoacetamido)propanamido)propanamide] the value was greater than 10000 µg/mL; for `C#CC[C@H](NC(=O)CN1CCOCC1)C(=O)N[C@@H](Cc1ccc(OC)cc1)C(=O)N[C@@H](CC1=CCCC1)C(=O)[C@@]1(C)CO1` [Compound C-1139, (S)-N-((S)-1-(((S)-3-(Cyclopent-1-en-1-yl)-1-((R)-2-methyloxiran-2-yl)-1-oxopropan-2-yl)amino)-3-(4-methoxyphenyl)-1-oxopropan-2-yl)-2-(2-morpholinoacetamido)pent-4-ynamide], 172 µg/mL (≈ 0.289 mM); for `COc1ccc(C[C@H](NC(=O)[C@H](C)NC(=O)CN2CCOCC2)C(=O)N[C@@H](CC2=CCCC2)C(=O)[C@@]2(C)CO2)cn1` [Compound C-1140, (S)-N-((S)-3-(cyclopent-1-en-1-yl)-1-((R)-2-methyloxiran-2-yl)-1-oxopropan-2-yl)-3-(6-methoxypyridin-3-yl)-2-((S)-2-(2-morpholinoacetamido)propanamido)propanamide], greater than 10000 µg/mL.
For `COc1cc(C[C@H](NC(=O)[C@H](C)NC(=O)CN2CCOCC2)C(=O)N[C@@H](CC2=CCCC2)C(=O)[C@@]2(C)CO2)ccn1` [Compound C-1141, (S)-N-((S)-3-(Cyclopent-1-en-1-yl)-1-((R)-2-methyloxiran-2-yl)-1-oxopropan-2-yl)-3-(2-methoxypyridin-4-yl)-2-((S)-2-(2-morpholinoacetamido)propanamido)propanamide] the value was 9010 µg/mL (≈ 15.8 mM).
As to `COc1ccc(C[C@H](NC(=O)[C@H](C)NC(=O)CN2CCOCC2)C(=O)N[C@@H](C[C@H]2[C@@H]3CCC[C@@H]32)C(=O)[C@@]2(C)CO2)cc1` [Compound C-1142, (S)-N-((S)-3-((1R,5S,6r)-bicyclo[3.1.0]hexan-6-yl)-1-((R)-2-methyloxiran-2-yl)-1-oxopropan-2-yl)-3-(4-methoxyphenyl)-2-((S)-2-(2-morpholinoacetamido)propanamido)propanamide], the concentration in solution (solubility) came to 2340 µg/mL (≈ 4 mM).
For `COc1ccc(C[C@H](NC(=O)[C@H](C)NC(=O)CN2CCOCC2)C(=O)N[C@@H](Cc2ccc(C#N)cc2)C(=O)[C@@]2(C)CO2)cc1` [Compound C-1163] the value was 2460 µg/mL (≈ 4.06 mM); for `COc1ccc(C[C@H](NC(=O)[C@H](C)NC(=O)[C@@H]2CCCN2C)C(=O)N[C@@H](Cc2ccccc2)C(=O)[C@@]2(C)CO2)cc1` [Compound C-1165], 2150 µg/mL (≈ 3.8 mM).
